Tiso isoenantioselective temperature and logK data for two compounds are collected here from article PMC11477000, “Enantioselective Binding of Proton Pump Inhibitors to Alpha1-Acid Glycoprotein and Human Serum Albumin—A Chromatographic, Spectroscopic, and In Silico Study” (International Journal of Molecular Sciences, 2024).

Data set [1] relates to α1-acid glycoprotein (AGP). Description: van 't Hoff thermodynamic analysis on AGP column. Type of data set: binding, human. Particulars: Δ(ΔH°)/Δ(ΔS°). The method, then: The temperature effect was investigated at pH 7 and a 95:5 buffer:IPA eluents ratio, between 10 and 30 °C on both columns. […] The determination of thermodynamic parameters can provide valuable insights into the process of enantiodiscrimination, including its mechanistic aspects. The applied classical van ’t Hoff methodology postulates the existence of solely enantioselective interaction sites on the stationary phase. Nonetheless, it should be emphasized that a more realistic approach would encompass both enantioselective and non-enantioselective interactions. The isoenantioselective temperatures (Tiso) were calculated by dividing Δ(ΔH°) by Δ(ΔS°). At this temperature, enthalpy and entropy compensations negate each other, resulting in the coelution of the two enantiomers and no separation. […]
In the equation, R represents the universal gas constant, T represents the absolute temperature in Kelvin, and k represents the retention factor of the enantiomers. ΔH° stands for the standard enthalpy, while ΔS° represents the standard entropy change of transfer of the solute from the mobile phase to the stationary phase. Φ is the phase ratio of the column. […] Similarly, the difference in the change of standard enthalpy, Δ(ΔH°), and standard entropy, Δ(ΔS°), for the two enantiomers was calculated as follows:(6) lnα=−ΔΔH°/RT+ΔΔS°/R

A further data set concerns the target BSA. Particulars: racemic, ref [39]; cited from earlier work.

For the compound `Cc1c(OCC(F)(F)F)ccnc1C[S+]([O-])c1nc2ccccc2[nH]1` (centres unmarked) [Lansoprazole, lansoprazole], in data set [1], the Tiso isoenantioselective temperature was −16.3 °C.
Take `COc1ccc2[nH]c([S+]([O-])Cc3ncc(C)c(OC)c3C)nc2c1` (centres unmarked) [Omeprazole, omeprazole]: the logK on BSA was 4.58.
